Laboratory results as given in paper PMC3666932 (Archives of pharmacal research, 2012).

Experiments:
[1] = test system: T. cruzi epimastigotes (Tulahuen CL98 strain); experiment: Antitrypanosomal activity assay; assay type: cell-based, Trypanosoma cruzi; settings: for Selectivity index (Cytotoxicity/ Activity): ratio of IC50 for fibroblast cells/ IC50 for parasites; for IC50: Trypanosoma cruzi, TULAHUEN, 48 h, read-out: Antitrypanocidal activity IC50
T. cruzi epimastigotes = settings: ref Ramos et al., 2009; cited from earlier work
[2] = Antitrypanosomal activity assay; assay type: cell-based, Trypanosoma cruzi; settings: mouse (fibroblasts) / Trypanosoma cruzi (parasites)
Cytotoxicity assay = assay type: cell-based; settings: mouse, Balb/C 3T3 mouse fibroblasts (clone A31)

SMILES: CCCC(=O)N(C(=O)CCC)C1=C(Cl)C(=O)c2ccccc2C1=O [IMDNQ3]
- Selectivity index (Cytotoxicity/ Activity) [1]: 31.83 ± 3.17

SMILES: O=C1C(Cl)=C(N2C(=O)c3ccccc3C2=O)C(=O)c2ccccc21 [IMDNQ2]
- Selectivity index (Cytotoxicity/ Activity) [1]: 53.97 ± 5.95

SMILES: O=C1C(c2ccccc2)=C(c2ccccc2)C(=O)c2ccccc21 [DPNQ, 2,3-diphenyl-1,4-naphthoquin-one]
- LD50 (T. cruzi epimastigotes): 2.5 µM

SMILES: O=C1C(Cl)=C(N2C(=O)COCC2=O)C(=O)c2ccccc21 [IMDNQ4]
- Selectivity index (Cytotoxicity/ Activity) [1]: 7.43 ± 0.97

SMILES: O=C1C(Cl)=C(N2C(=O)CCC2=O)C(=O)c2ccccc21 [IMDNQ1]
- Selectivity index (Cytotoxicity/ Activity) [1]: 60.25 ± 2.79

SMILES: O=C1C(Cl)=C(N(C(=O)c2cccc(Cl)c2)C(=O)c2cccc(Cl)c2)C(=O)c2ccccc21 [IMDNQ10, 3-Chloro-N-(3-chlorobenzoyl)-N-(3-chloro-1,4-dioxo-1,4-dihydronaphthalen-2-yl)-benzamide]
- selectivity ratio at 48 h [2]: 275 ± 13.7
- IC50 [1]: 2.23 ± 0.15 µM

SMILES: O=C1C(Br)=C(N(C(=O)c2ccccc2Cl)C(=O)c2ccccc2Cl)C(=O)c2ccccc21 [IMDNQ6, N-(3-Bromo-1,4-dioxo-1,4-dihydronaphthalen-2-yl)-2-chloro-N-(2-chlorobenzoyl)-benzamide]
- IC50 at 48 h (Cytotoxicity assay): 14.2 ± 1.42 µM

SMILES: O=C1C(Cl)=C(N(C(=O)CCl)C(=O)CCl)C(=O)c2ccccc21 [IMDNQ11]
- Selectivity index (Cytotoxicity/ Activity) [1]: 3.20 ± 0.44

SMILES: O=C1C(Cl)=C(N(C(=O)c2ccccc2Cl)C(=O)c2ccccc2Cl)C(=O)c2ccccc21 [IMDNQ8, 2-Chloro-N-(2-chlorobenzoyl)-N-(3-chloro-1,4-dioxo-1,4-dihydronaphthalen-2-yl)-benzamide]
- IC50 [1]: 2.67 ± 0.33 µM
- IC50 at 48 h (Cytotoxicity assay): 26.5 ± 1.61 µM

SMILES: O=C1C(Br)=C(N(C(=O)c2ccc(F)cc2)C(=O)c2ccc(F)cc2)C(=O)c2ccccc21 [IMDNQ5, N-(3-Bromo-1,4-dioxo-1,4-dihydronaphthalen-2-yl)-4-fluoro-N-(4-fluorobenzoyl)-benzamide]
- IC50 [1]: 2.27 ± 0.15 µM
- IC50 at 48 h (Cytotoxicity assay): 12.8 ± 0.73 µM

SMILES: O=C1C(Cl)=C(N(C(=O)c2ccc(F)cc2)C(=O)c2ccc(F)cc2)C(=O)c2ccccc21 [IMDNQ9, N-(3-Chloro-1,4-dioxo-1,4-dihydronaphthalen-2-yl)-4-fluoro-N-(4-fluorobenzoyl)-benzamide]
- IC50 [1]: 4.07 ± 0.23 µM
- IC50 at 48 h (Cytotoxicity assay): 21.8 ± 1.88 µM

SMILES: CC1CS(=O)(=O)CCN1/N=C/c1ccc([N+](=O)[O-])o1 (stereo not shown) [Nifurtimox, reference compound]
- IC50 [1]: 10.7 ± 1.01 µM
